Test results from patent US4767761A, “Ornithine derivatives and their use as methotrexate-resistant cell inhibitors” (priority 1987, dated 1988).
Like-named read-outs stand apart in the source and are kept apart here.

Key:
[1] = system: L 1210/R81 murine leukemia cells; test: Cytotoxicity assay against L 1210/R81 murine leukemia cells, 48 hours; type: cell-based; settings: for IC50: Mus musculus, L1210 ( R81), read-out: L1210/R81 cell growth inhibition IC50; for L1210/R81 normalized relative to MTX: number in parentheses
Procedure: (§1) A cytotoxicity assay was carried out for the same group of compounds against L 1210 and L 1210/R81 murine leukemia cells cultured for 48 hours in RPMI 1640 medium containing 10% fetal bovine serum, using the procedure of Mosman, J. Immunol. Meth., Vol. 65, 55-63 (1983).

cell growth in culture = settings: result in words; Rosowsky et al. (1986); cited from earlier work
[2] = system: L 1210 murine leukemia cells; test: Cytotoxicity assay against L 1210 murine leukemia cells, 48 hours; type: cell-based; settings: for IC50: Mus musculus, read-out: L1210 cell growth inhibition IC50; for L1210 normalized relative to MTX: number in parentheses
Procedure: as §1

[3] = system: folylpolyglutamate synthetase (FPGS); settings: result in words; Rosowsky et al. (1986); cited from earlier work
[4] = system: dihydrofolate reductase (DHFR); settings: result in words; Rosowsky et al. (1986); cited from earlier work
CEM/MTX lymphoblasts = test: Cell growth inhibition against human CEM/MTX lymphoblasts, 48 hours; type: cell-based; settings: for IC50: Homo sapiens, read-out: CEM/MTX cell growth inhibition IC50; for CEM/MTX normalized relative to MTX: number in parentheses
Procedure: (§2) In addition, four of the compounds were tested against human CEM and CEM/MTX lymphoblasts cultured fcr 48 hours in Dulbecco's modified Eagle's medium containing 10% fetal bovine serum.

[5] = biological target: T1, DHFR (Dihydrofolate Reductase) from L 1210/R81 murine leukemia cells (Mus musculus, UniProt P00375); test: Inhibition of DHFR purified by MTX affinity chromatography from L 1210/R81 murine leukemia cells (spectrophotometric, 340 nm); type: biochemical; settings: range of six separate experiments on different days (footnote a, Table 1)
T1 construct: endogenous in cells; host or cells: L1210/R81 murine leukemia cells
T1 sequence (P00375 1-187): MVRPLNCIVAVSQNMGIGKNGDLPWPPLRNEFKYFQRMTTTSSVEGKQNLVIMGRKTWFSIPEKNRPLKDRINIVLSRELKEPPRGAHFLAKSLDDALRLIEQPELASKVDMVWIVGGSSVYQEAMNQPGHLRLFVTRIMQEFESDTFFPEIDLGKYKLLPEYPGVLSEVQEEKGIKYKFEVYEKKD
Procedure: Inhibition of DHFR purified by MTX affinity chromatography from L 1210/R81 murine leukemia cells was determined. […] Certain of the compounds were also tested as inhibitors of partially purified FPGS from mouse liver.
IC50 concentrations (μM) were […]

CEM lymphoblasts = test: Cell growth inhibition against human CEM lymphoblasts, 48 hours; type: cell-based; settings: for IC50: Homo sapiens, CCRF-CEM, read-out: CEM cell growth inhibition IC50; for CEM normalized relative to MTX: number in parentheses
Procedure: as §2

SCC15/R1 cells [6] = test: Growth inhibition of MTX-resistant human squamous carcinoma cells SCC15/R1; type: cell-based; settings: SCC-15, 336 h, continuous exposure about two weeks
[7] = system: parental SCC15 and SCC25 cells; test: Growth inhibition of parental SCC15 and SCC25 cells (joint statement); type: cell-based, human
SCC25 cells [8] = test: Growth inhibition of human squamous carcinoma cells SCC25; type: cell-based; settings: SCC-25, 336 h, continuous exposure about two weeks
[9] = system: L1210, L1210/R81, CEM and CEM/MTX cells; test: Cell growth inhibition of Table 2 (joint statement); type: cell-based, murine; human; settings: comparison with the other compounds
Procedure: as §1
In addition, four of the compounds were tested against human CEM and CEM/MTX lymphoblasts cultured fcr 48 hours in Dulbecco's modified Eagle's medium containing 10% fetal bovine serum. The IC50 (μM) values, with normalized values relative to MTX given in parentheses, are reported in the last two columns of Table 2.

SCC25/R1 cells [10] = test: Growth inhibition of MTX-resistant human squamous carcinoma cells SCC25/R1; type: cell-based; settings: SCC-25, 336 h, continuous exposure about two weeks
SCC15 cells [11] = test: Growth inhibition of human squamous carcinoma cells SCC15; type: cell-based; settings: SCC-15, 336 h, continuous exposure about two weeks
SCC25/R1 cells [12] = settings: taken from Rosowsky et al. (1985); cited from earlier work
mouse liver FPGS = settings: footnote c, Table 1; see Moran et al.; cited from earlier work
SCC25 cells [13] = settings: taken from Rosowsky et al. (1985); cited from earlier work
SCC15/R1 cells [14] = settings: taken from Rosowsky et al. (1985); cited from earlier work
SCC15 cells [15] = settings: taken from Rosowsky et al. (1985); cited from earlier work
[16] = system: MTX-resistant SCC15/R1 and SCC25/R1 sublines; test: Growth inhibition of MTX-resistant SCC15/R1 and SCC25/R1 sublines (joint statement); type: cell-based, human
[17] = L1210, 48 hours, RPMI 1640, 10% fetal bovine serum
[18] = 48 hours, RPMI 1640, 10% fetal bovine serum
[19] = 48 hours, Dulbecco's modified Eagle's medium, 10% fetal bovine serum

SMILES	IC50 ([1]; 48 h)	IC50 [2, 17]	L1210 normalized relative to MTX [2]	IC50 [1, 18]	L1210/R81 normalized relative to MTX [1]	IC50 (CEM/MTX lymphoblasts; [19])	CEM/MTX normalized relative to MTX (CEM/MTX lymphoblasts)	IC50 (CEM lymphoblasts; [19])	CEM normalized relative to MTX (CEM lymphoblasts)	further results
Nc1nc(N)c2nc(CNc3ccc(C(=O)N[C@@H](CCC(=O)O)C(=O)O)cc3)cnc2n1 [Aminopterin, reference compound]	84000 nM									
NCCC[C@H](NC(=O)c1ccc(NCc2cnc3nc(N)nc(N)c3n2)cc1)C(=O)O [Compound 1, N^α -(4-Amino-4-deoxypteroyl)-L-ornithine]	32000 nM									inhibitor of cell growth in culture (cell growth in culture): relatively inactive; IC50 ([2]; L1210, 48 h): 1300 nM; inhibitor of folylpolyglutamate synthetase [3]: potent inhibitor; inhibitor of dihydrofolate reductase [4]: potent inhibitor
CC(=O)NCCC[C@H](NC(=O)c1ccc(NCc2cnc3nc(N)nc(N)c3n2)cc1)C(=O)O [Compound 2]		17 nM	0.27	81000 nM	2.5					
Nc1nc(N)c2nc(CNc3ccc(C(=O)N[C@@H](CCCNC(=O)c4ccccc4)C(=O)O)cc3)cnc2n1 [Compound 4]		0.89 nM	5.2	17000 nM	12	1100 nM	6.0	6.6 nM	5.0	IC50 [5]: 0.56 to 1.5 nM
Nc1nc(N)c2nc(CNc3ccc(C(=O)N[C@@H](CCCNC(=O)c4ccc(Cl)cc4)C(=O)O)cc3)cnc2n1 [Compound 5]		3.2 nM	1.4	27000 nM	7.4	1000 nM	6.6	270 nM	0.12	
Nc1nc(N)c2nc(CNc3ccc(C(=O)N[C@@H](CCCNC(=O)c4ccc(Cl)c(Cl)c4)C(=O)O)cc3)cnc2n1 [Compound 6]		32 nM	0.14	127000 nM	1.6	10000 nM	0.66	7400 nM	0.0043	
Nc1nc(N)c2nc(CNc3ccc(C(=O)N[C@@H](CCCNC(=O)c4ccccc4C(=O)O)C(=O)O)cc3)cnc2n1 [Compound 7, N^α -(4-Amino-4-deoxypteroyl)-N^67-hemi-phthaloyl-L-Ornithine]										IC50 (SCC15/R1 cells [6]): 4 nM; more potent than MTX against the parental SCC15 and SCC25 cells ([7]; more potent than MTX): 10- to 30 fold; IC50 (SCC25 cells [8]): 0.96 nM; activity shown in Table 2, result in words [9]: high activity; IC50 (CEM/MTX lymphoblasts; 48 h): 420 nM; IC50 ([2]; L1210, 48 h): 0.75 nM; IC50 (SCC25/R1 cells [10]): 1.3 nM; IC50 (SCC15 cells [11]): 1.1 nM; IC50 (CEM lymphoblasts; 48 h): 4.3 nM
CN(Cc1cnc2nc(N)nc(N)c2n1)c1ccc(C(=O)N[C@@H](CCC(=O)O)C(=O)O)cc1 [Methotrexate]	200000 nM									IC50 (SCC25/R1 cells [12]): 150 nM; substrate for mouse liver FPGS (mouse liver FPGS): substrates; IC50 (SCC25 cells [13]): 7.5 nM; IC50 (CEM/MTX lymphoblasts; 48 h): 6600 nM; IC50 (SCC15/R1 cells [14]): 580 nM; IC50 (CEM lymphoblasts; 48 h): 32 nM; IC50 (SCC15 cells [15]): 38 nM
CN(Cc1cnc2nc(N)nc(N)c2n1)c1ccc(C(=O)N[C@@H](CCC(=O)OC(C)(C)C)C(=O)O)cc1 [γ-t-butyl ester of MTX, γ-tert. -butyl ester of methotrexate]										IC50 (SCC25/R1 cells [12]): 780 nM; less potent than MTX against the parental SCC15 and SCC25 cells ([7]; less potent than MTX): at least 10 fold; IC50 (SCC25 cells [13]): 400 nM; IC50 (SCC15/R1 cells [14]): 1300 nM; less potent than MTX against the MTX-resistant SCC15/R1 and SCC25/R1 sublines [16]: at least 30 fold; IC50 (SCC15 cells [15]): 600 nM
